“And” between values parts separate entries of the source, which are not always exact repeats. Identical values can stand only once.
Species: Rattus norvegicus
Experiment: DrugMatrix - Regimen: Daily Repeat
Type: toxicity, organism-based, Sprague-Dawley
Parameters: regimen Daily Repeat, gender Male, age 6-8 weeks
Settings: in vivo, ip, route intraperitoneal, vehicle 100 % SALINE; for ABSOLUTE BASOPHIL / ABSOLUTE EOSINOPHIL / ABSOLUTE LYMPHOCYTE / ABSOLUTE MONOCYTE / ABSOLUTE SEGMENTED NEUTROPHIL / BASOPHIL / EOSINOPHIL / ERYTHROCYTE COUNT / HEMATOCRIT / HEMOGLOBIN / LEUKOCYTE COUNT / LYMPHOCYTE / MEAN CORPUSCULAR HEMOGLOBIN / MEAN CORPUSCULAR HEMOGLOBIN CONCENTRATION / MEAN CORPUSCULAR VOLUME / MONOCYTE / NEUTROPHIL / PLATELET COUNT: tissue Blood; for ALANINE AMINOTRANSFERASE / ALBUMIN / ALKALINE PHOSPHATASE / ASPARTATE AMINOTRANSFERASE / BLOOD UREA NITROGEN / CARBON DIOXIDE / CHOLESTEROL / CREATINE PHOSPHOKINASE / CREATININE / GLUCOSE / LACTATE DEHYDROGENASE / LIPASE / PHOSPHORUS / POTASSIUM / SODIUM / TOTAL BILIRUBIN / TOTAL PROTEIN / URIC ACID / CHLORIDE: tissue Plasma
[1] = 0 mg/kg, 120 h, dose level Control, time 5 day
[2] = 0 mg/kg, […], dose level Control, time 14 day
[3] = 0 mg/kg, […], dose level Control, time 28 day
[4] = 40 mg/kg, 120 h, dose level High, time 5 day

GENTAMICIN
ABSOLUTE BASOPHIL [1]: 32 cells/µL | ABSOLUTE EOSINOPHIL [1]: 110 cells/µL | ABSOLUTE LYMPHOCYTE [1]: 6630 cells/µL | ABSOLUTE MONOCYTE [1]: 140 cells/µL | ABSOLUTE SEGMENTED NEUTROPHIL [1]: 1170 cells/µL | BASOPHIL [1]: 0.38% and 0.35% | EOSINOPHIL [1]: 1.28% and 0.62% | ERYTHROCYTE COUNT [1]: 7.45 x10E6/uL and 7.26 x10E6/uL | HEMATOCRIT [1]: 45.74% and 47.97% | HEMOGLOBIN [1]: 14.72 G/DL and 15.38 G/DL | LEUKOCYTE COUNT [1]: 8.11 x10E3/uL and 8.68 x10E3/uL | LYMPHOCYTE [1]: 81.3% and 86.77% | MEAN CORPUSCULAR HEMOGLOBIN [1]: 19.76 pg and 21.18 pg | MEAN CORPUSCULAR HEMOGLOBIN CONCENTRATION [1]: 32.16 G/DL and 32.05 G/DL | MEAN CORPUSCULAR VOLUME [1]: 61.38 fL and 66.15 fL | MONOCYTE [1]: 1.76% and 1.57% | NEUTROPHIL [1]: 14.9% and 9.53% | PLATELET COUNT [1]: 1322.4 x10E3/uL and 1786 x10E3/uL | ALANINE AMINOTRANSFERASE [1]: 25.8 u/L and 20.5 u/L | ALBUMIN [1]: 3.64 G/DL and 4.35 G/DL | ALKALINE PHOSPHATASE [1]: 300 u/L | ASPARTATE AMINOTRANSFERASE [1]: 81.4 u/L and 86.75 u/L | BLOOD UREA NITROGEN [1]: 14.4 mg/dL and 17 mg/dL | CARBON DIOXIDE [1]: 29 mmol/L | CHOLESTEROL [1]: 69.2 mg/dL and 51.25 mg/dL | CREATINE PHOSPHOKINASE [1]: 303.2 u/L and 384.75 u/L | CREATININE [1]: 0.56 mg/dL and 0.47 mg/dL | GLUCOSE [1]: 125.4 mg/dL and 128.75 mg/dL | LACTATE DEHYDROGENASE [1]: 105.4 u/L and 145 u/L | LIPASE [1]: 22.4 u/L and 13.25 u/L | PHOSPHORUS [1]: 11.8 mg/dL | POTASSIUM [1]: 5.52 MEQ/L and 6.58 MEQ/L | SODIUM [1]: 147 MEQ/L and 151 MEQ/L | TOTAL BILIRUBIN [1]: 0.2 mg/dL and 0.33 mg/dL | TOTAL PROTEIN [1]: 6.1 G/DL and 6.53 G/DL | URIC ACID [1]: 1.06 mg/dL and 1.95 mg/dL | ABSOLUTE BASOPHIL [2]: 130 cells/µL | ABSOLUTE EOSINOPHIL [2]: 140 cells/µL | ABSOLUTE LYMPHOCYTE [2]: 13500 cells/µL | ABSOLUTE MONOCYTE [2]: 400 cells/µL | ABSOLUTE SEGMENTED NEUTROPHIL [2]: 2330 cells/µL | HEMATOCRIT [2]: 45.98% | HEMOGLOBIN [2]: 15.17 G/DL | MEAN CORPUSCULAR VOLUME [2]: 59.4 fL | NEUTROPHIL [2]: 14.14% | ABSOLUTE BASOPHIL [3]: 91 cells/µL | ABSOLUTE EOSINOPHIL [3]: 110 cells/µL | ABSOLUTE LYMPHOCYTE [3]: 9910 cells/µL | ABSOLUTE MONOCYTE [3]: 210 cells/µL | ABSOLUTE SEGMENTED NEUTROPHIL [3]: 1560 cells/µL | BASOPHIL [3]: 0.77% | EOSINOPHIL [3]: 0.92% | ERYTHROCYTE COUNT [3]: 8.21 x10E6/uL | HEMATOCRIT [3]: 47.53% | HEMOGLOBIN [3]: 15.65 G/DL | LEUKOCYTE COUNT [3]: 11.91 x10E3/uL | LYMPHOCYTE [3]: 83.34% | MEAN CORPUSCULAR HEMOGLOBIN [3]: 19.07 pg | MEAN CORPUSCULAR HEMOGLOBIN CONCENTRATION [3]: 32.93 G/DL | MEAN CORPUSCULAR VOLUME [3]: 57.9 fL | MONOCYTE [3]: 1.68% | NEUTROPHIL [3]: 12.97% | PLATELET COUNT [3]: 1323.8 x10E3/uL | ALBUMIN [2]: 3.66 G/DL | CARBON DIOXIDE [2]: 25 mmol/L | CHLORIDE [2]: 107 MEQ/L | CREATINE PHOSPHOKINASE [2]: 410.25 u/L | SODIUM [2]: 149.2 MEQ/L | URIC ACID [2]: 0.94 mg/dL | ALANINE AMINOTRANSFERASE [3]: 30 u/L | ALBUMIN [3]: 3.71 G/DL | ALKALINE PHOSPHATASE [3]: 186.8 u/L | ASPARTATE AMINOTRANSFERASE [3]: 78.2 u/L | BLOOD UREA NITROGEN [3]: 14.2 mg/dL | CHOLESTEROL [3]: 44.9 mg/dL | CREATINE PHOSPHOKINASE [3]: 334.3 u/L | CREATININE [3]: 0.6 mg/dL | GLUCOSE [3]: 147.2 mg/dL | LACTATE DEHYDROGENASE [3]: 123.1 u/L | LIPASE [3]: 9.6 u/L | PHOSPHORUS [3]: 10.01 mg/dL | POTASSIUM [3]: 6.57 MEQ/L | SODIUM [3]: 149.5 MEQ/L | TOTAL BILIRUBIN [3]: 0.21 mg/dL | TOTAL PROTEIN [3]: 6.66 G/DL | URIC ACID [3]: 1.26 mg/dL | ABSOLUTE BASOPHIL [4]: 80 cells/µL | ABSOLUTE EOSINOPHIL [4]: 74 cells/µL | ABSOLUTE LYMPHOCYTE [4]: 8100 cells/µL | ABSOLUTE MONOCYTE [4]: 240 cells/µL | ABSOLUTE SEGMENTED NEUTROPHIL [4]: 1450 cells/µL | BASOPHIL [4]: 0.76% and 0.38% | EOSINOPHIL [4]: 0.78% and 0.9% | ERYTHROCYTE COUNT [4]: 6.83 x10E6/uL and 7.91 x10E6/uL | HEMATOCRIT [4]: 41.68% and 49.95% | HEMOGLOBIN [4]: 15.98 G/DL | LEUKOCYTE COUNT [4]: 10.02 x10E3/uL and 8.78 x10E3/uL | LYMPHOCYTE [4]: 80.04% and 84.55% | MEAN CORPUSCULAR HEMOGLOBIN [4]: 20.3 pg and 20.2 pg | MEAN CORPUSCULAR HEMOGLOBIN CONCENTRATION [4]: 33.3 G/DL and 31.98 G/DL | MEAN CORPUSCULAR VOLUME [4]: 61 fL | MONOCYTE [4]: 2.58% and 2.52% | NEUTROPHIL [4]: 15.12% and 10.23% | PLATELET COUNT [4]: 1275.4 x10E3/uL and 1549.75 x10E3/uL | ALANINE AMINOTRANSFERASE [4]: 28.6 u/L and 25 u/L | ALBUMIN [4]: 3.36 G/DL and 4.35 G/DL | ALKALINE PHOSPHATASE [4]: 214.2 u/L and 307.5 u/L | ASPARTATE AMINOTRANSFERASE [4]: 87.2 u/L and 90.25 u/L | BLOOD UREA NITROGEN [4]: 15 mg/dL and 15.25 mg/dL | CARBON DIOXIDE [4]: 25.75 mmol/L | CHLORIDE [4]: 107.4 MEQ/L | CHOLESTEROL [4]: 60.8 mg/dL and 65.25 mg/dL | CREATINE PHOSPHOKINASE [4]: 313.5 u/L and 416.75 u/L | CREATININE [4]: 0.44 mg/dL and 0.45 mg/dL | GLUCOSE [4]: 128 mg/dL and 118.5 mg/dL | LACTATE DEHYDROGENASE [4]: 133.8 u/L and 153 u/L
